What is called IC50 is the concentration needed to halve the response being measured. A lower IC50 goes with greater potency in that assay.

The assay deals with human autotaxin (ATX) (Homo sapiens (Human), UniProt Q13822). Description: Human Autotaxin Assay. The assay is classed as biochemical. As to conditions: concentrated conditioned media from Hep3B cells; LPC substrate, choline release. On the procedure: ATX activity is assayed in concentrated conditioned media from Hep3B human hepatocellular carcinoma cells by measuring the amount of choline released from the substrate, lysophosphatidylcholine (LPC) as it is cleaved to LPA. Conditioned media is collected from confluent Hep3B cells and concentrated 20-fold using Centriprep-30 filter devices (Millipore). To assay for autotaxin inhibition, 10-20 μL of the concentrated conditioned media is incubated with 2.5 μL of a test compound in DMSO and 72.5-82.5 μL lyso-PLD buffer (100 mM Tris pH 9, 500 mM NaCl, 5 mM MgCl2, 5 mM CaCl2, 0.05% Triton X-100 in the presence or absence of 0.2% fatty-acid-free human serum albumin) for 15 min at 37° C. After the 15 min incubation, 5 uL of 2 mM LPC (14:0; Avanti Polar Lipids Cat#855575C) diluted in lyso-PLD buffer is added for a final concentration of 100 uM and the incubation continues for 1.5-3 hours at 37° C.
As for `Cc1c(Sc2cccc(C(=O)O)c2F)c2ccc(Cl)c(F)c2n1CCN1CCc2ccccc21` [Compound 2-73, Sodium 3-((6-chloro-7-fluoro-1-(2-(indolin-1-yl)ethyl)-2-methyl-1H-indol-3-yl)thio)-2-fluorobenzoate], the IC50 was not above 500 nM. As to `Cc1c(Sc2cccc(C(=O)O)c2)c2ccc(Cl)c(F)c2n1CC(=O)N1CCC(O)C1` (stereo not drawn) [Compound 1-90, 3-((6-Chloro-7-fluoro-1-(2-(3-hydroxypyrrolidin-1-yl)-2-oxoethyl)-2-methyl-1H-indol-3-yl)thio)benzoic acid], the IC50 is not above 500 nM. As for `Cc1c(Sc2cccc(C(=O)O)c2F)c2ccc(Cl)c(F)c2n1CC(=O)N1CC(C#N)C1` [Compound 2-67, 3-((6-Chloro-1-(2-(3-cyanoazetidin-1-yl)-2-oxoethyl)-7-fluoro-2-methyl-1H-indol-3-yl)thio)-2-fluorobenzoic acid], the figure is not above 500 nM; as for `O=C(O)c1cccc(Sc2c(Cl)n(CC(=O)N3CC4(CCC4)c4ccccc43)c3c(F)c(Cl)ccc23)c1F` [Compound 4-121, Sodium 3-((2,6-dichloro-7-fluoro-1-(2-oxo-2-(spiro[cyclobutane-1,3′-indolin]-1′-yl)ethyl)-1H-indol-3-yl)thio)-2-fluorobenzoate], not above 500 nM; as for `Cc1c(Sc2cccc(C(=O)O)c2)c2ccc(Cl)c(F)c2n1CC(=O)N1CCC(O)(C(F)(F)F)C1` (stereo not drawn) [Compound 1-37, 3-((6-Chloro-7-fluoro-1-(2-(3-hydroxy-3-(trifluoromethyl)pyrrolidin-1-yl)-2-oxoethyl)-2-methyl-1H-indol-3-yl)thio)benzoic acid], not above 500 nM. As for `Cc1c(Sc2cccc(C(=O)O)c2)c2ccc(Cl)c(F)c2n1CC(=O)N1CCc2ccccc2C1` [Compound 1-79, 3-((6-Chloro-1-(2-(3,4-dihydroisoquinolin-2(1H)-yl)-2-oxoethyl)-7-fluoro-2-methyl-1H-indol-3-yl)thio)benzoic acid], the figure is not above 500 nM. Under `Cc1c(Sc2cccc(C(=O)O)c2F)c2ccc(Cl)c(F)c2n1CC(=O)N1C[C@@H](O)[C@H](F)C1` [Compound 2-66, 3-((6-Chloro-7-fluoro-1-(2-((3R,4R)-3-fluoro-4-hydroxypyrrolidin-1-yl)-2-oxoethyl)-2-methyl-1H-indol-3-yl)thio)-2-fluorobenzoic acid] stands not above 500 nM. In turn, `Cc1c(Sc2cccc(C(=O)O)c2)c2ccc(Cl)c(F)c2n1CC(=O)N1CC(N2CCC(F)(F)C2)C1` [Compound 1-42, 3-((6-Chloro-1-(2-(3-(3,3-difluoropyrrolidin-1-yl)azetidin-1-yl)-2-oxoethyl)-7-fluoro-2-methyl-1H-indol-3-yl)thio)benzoic acid] had a half-inhibitory concentration (IC50) not above 500 nM. The compound `Cc1c(Sc2cccc(C(=O)O)c2)c2ccc(Cl)c(F)c2n1CC(=O)N1CC2(CC2)c2cc(F)ccc21` [Compound 1-32, 3-((6-Chloro-7-fluoro-1-(2-(5′-fluorospiro[cyclopropane-1,3′-indolin]-1′-yl)-2-oxoethyl)-2-methyl-1H-indol-3-yl)thio)benzoic acid] gave an IC50 not above 500 nM. Under `Cc1c(Sc2cccc(C(=O)O)c2F)c2ccc(Cl)c(F)c2n1CC(=O)N1CC2(CCC2)c2ccccc21` [Compound 3-220, 3-((6-Chloro-7-fluoro-2-methyl-1-(2-oxo-2-(spiro[cyclobutane-1,3′-indolin]-1′-yl)ethyl)-1H-indol-3-yl)thio)-2-fluorobenzoic acid] stands not above 500 nM; under `Cc1c(Sc2cccc(C(=O)O)c2)c2ccc(Cl)c(F)c2n1CC(=O)N1CCc2ccncc21` [Compound 1-97, 3-((6-Chloro-1-(2-(2,3-dihydro-1H-pyrrolo[2,3-c]pyridin-1-yl)-2-oxoethyl)-7-fluoro-2-methyl-1H-indol-3-yl)thio)benzoic acid], not above 500 nM. As to `Cc1c(Sc2cccc(C(=O)O)c2)c2ccc(Cl)c(F)c2n1CC(=O)N1CCC(Cc2ccncc2)C1` (stereo not drawn) [Compound 1-88, 3-((6-Chloro-7-fluoro-2-methyl-1-(2-oxo-2-(3-(pyridin-4-ylmethyl)pyrrolidin-1-yl)ethyl)-1H-indol-3-yl)thio)benzoic acid], the IC50 is not above 500 nM. `Cc1c(Sc2cccc(C(=O)O)n2)c2ccc(Cl)c(F)c2n1CC(=O)N1CC2(CC2)c2ccccc21` [Compound 2-54, 6-((6-Chloro-7-fluoro-2-methyl-1-(2-oxo-2-(spiro[cyclopropane-1,3′-indolin]-1′-yl)ethyl)-1H-indol-3-yl)thio)picolinic acid] gave an IC50 not above 500 nM. As for `Cc1c(Sc2cccc(C(=O)O)c2)c2ccc(Cl)c(F)c2n1CC(=O)NCC(F)(F)F` [Compound 1-5, 3-((6-Chloro-7-fluoro-2-methyl-1-(2-oxo-2-((2,2,2-trifluoroethyl)amino)ethyl)-1H-indol-3-yl)thio)benzoic acid], the figure is not above 500 nM. `Cc1c(Sc2cccc(C(=O)O)c2F)c2ccc(Cl)c(F)c2n1CC(=O)N1CC(O)(C2CC2)C1` [Compound 2-63, 3-((6-Chloro-1-(2-(3-cyclopropyl-3-hydroxyazetidin-1-yl)-2-oxoethyl)-7-fluoro-2-methyl-1H-indol-3-yl)thio)-2-fluorobenzoic acid] returned an IC50 not above 500 nM. Take `Cc1c(Sc2cccc(C(=O)O)c2)c2ccc(Cl)c(F)c2n1CC(=O)N1CCC(c2ccncc2)C1` (stereo not drawn) [Compound 1-89, 3-((6-Chloro-7-fluoro-2-methyl-1-(2-oxo-2-(3-(pyridin-4-yl)pyrrolidin-1-yl)ethyl)-1H-indol-3-yl)thio)benzoic acid]: the IC50 is not above 500 nM. As for `Cc1c(Sc2cccc(C(=O)O)c2)c2ccc(Cl)c(F)c2n1CC(=O)N1CCCC1c1cnn(C)c1` (stereo not drawn) [Compound 1-85, 3-((6-Chloro-7-fluoro-2-methyl-1-(2-(2-(1-methyl-1H-pyrazol-4-yl)pyrrolidin-1-yl)-2-oxoethyl)-1H-indol-3-yl)thio)benzoic acid], the figure is not above 500 nM; as for `Cc1c(Sc2cccc(C(=O)O)c2F)c2ccc(Cl)c(F)c2n1CC(=O)N1C[C@H](O)[C@@H](N2CCN(C)CC2)C1` [Compound 2-70, 3-((6-Chloro-7-fluoro-1-(2-((3S,4S)-3-hydroxy-4-(4-methylpiperazin-1-yl)pyrrolidin-1-yl)-2-oxoethyl)-2-methyl-1H-indol-3-yl)thio)-2-fluorobenzoic acid], not above 500 nM. Under `Cc1c(Sc2cccc(C(=O)O)c2)c2ccc(Cl)c(F)c2n1CC(=O)N1CCC2(CC1)CC(=O)C2` [Compound 1-18, 3-((6-Chloro-7-fluoro-2-methyl-1-(2-oxo-2-(2-oxo-7-azaspiro[3.5]nonan-7-yl)ethyl)-1H-indol-3-yl)thio)benzoic acid] stands not above 500 nM; under `Cc1c(Sc2cccc(C(=O)O)c2)c2ccc(Cl)c(F)c2n1CC(=O)N1CCC(Cc2ccc(F)cc2)CC1` [Compound 1-60, 3-((6-Chloro-7-fluoro-1-(2-(4-(4-fluorobenzyl)piperidin-1-yl)-2-oxoethyl)-2-methyl-1H-indol-3-yl)thio)benzoic acid], 500 to 3000 nM.

`Cc1c(Sc2cccc(C(=O)O)c2)c2ccc(Cl)c(F)c2n1CCC(=O)N1CCc2ccccc21` [Compound 1-26, 3-((6-Chloro-7-fluoro-1-(3-(indolin-1-yl)-3-oxopropyl)-2-methyl-1H-indol-3-yl)thio)benzoic acid] came in with an IC50 not above 500 nM.

The values are drawn from patent US9850203B2, “Autotaxin inhibitor compounds” (PharmAkea, Inc., priority 2013, dated 2017).
